In PMC7072815, “Nrp1 is Activated by Konjac Ceramide Binding-Induced Structural Rigidification of the a1a2 Domain” (Cells, 2020):

Biological target: T1, neuropilin 1 (Nrp1) (Mus musculus, UniProt P97333)
T1 construct: a1a2 domain (residues 23−269), His6-tag, pCold-ProS2 vector, E. coli
T1 sequence (P97333 23-269): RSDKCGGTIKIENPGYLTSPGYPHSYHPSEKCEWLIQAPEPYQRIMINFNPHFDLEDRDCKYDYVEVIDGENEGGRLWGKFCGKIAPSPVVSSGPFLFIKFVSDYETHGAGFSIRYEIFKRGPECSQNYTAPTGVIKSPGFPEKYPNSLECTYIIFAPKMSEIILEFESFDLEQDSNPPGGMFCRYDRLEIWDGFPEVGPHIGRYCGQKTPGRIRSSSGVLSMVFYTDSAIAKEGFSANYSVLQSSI
Assay: quantitative fluorescent dot-blot saturation binding to purified a1a2

A Kd of 114 ± 5 nM was found for d4t,8t-NBD-Ceramide in this work.
